Experimental data from patent US20200071326A1, “TAM KINASE INHIBITORS” (Syros Pharmaceuticals, Inc., priority 2017, published 2020).
Where a name gives a salt, the structure may show the parent alone.

Tests used:
TYRO3 = biological target: T1, TYRO3 (Homo sapiens, UniProt Q06418); assay: IMAP fluorescence polarization kinase assay, TYRO3; format: biochemical; conditions: ATP 54.0 μM, enzyme 2.5 nM, 60 minutes, read-out: TYRO3 inhibitory constant (Ki)
T1 sequence (Q06418 41-890): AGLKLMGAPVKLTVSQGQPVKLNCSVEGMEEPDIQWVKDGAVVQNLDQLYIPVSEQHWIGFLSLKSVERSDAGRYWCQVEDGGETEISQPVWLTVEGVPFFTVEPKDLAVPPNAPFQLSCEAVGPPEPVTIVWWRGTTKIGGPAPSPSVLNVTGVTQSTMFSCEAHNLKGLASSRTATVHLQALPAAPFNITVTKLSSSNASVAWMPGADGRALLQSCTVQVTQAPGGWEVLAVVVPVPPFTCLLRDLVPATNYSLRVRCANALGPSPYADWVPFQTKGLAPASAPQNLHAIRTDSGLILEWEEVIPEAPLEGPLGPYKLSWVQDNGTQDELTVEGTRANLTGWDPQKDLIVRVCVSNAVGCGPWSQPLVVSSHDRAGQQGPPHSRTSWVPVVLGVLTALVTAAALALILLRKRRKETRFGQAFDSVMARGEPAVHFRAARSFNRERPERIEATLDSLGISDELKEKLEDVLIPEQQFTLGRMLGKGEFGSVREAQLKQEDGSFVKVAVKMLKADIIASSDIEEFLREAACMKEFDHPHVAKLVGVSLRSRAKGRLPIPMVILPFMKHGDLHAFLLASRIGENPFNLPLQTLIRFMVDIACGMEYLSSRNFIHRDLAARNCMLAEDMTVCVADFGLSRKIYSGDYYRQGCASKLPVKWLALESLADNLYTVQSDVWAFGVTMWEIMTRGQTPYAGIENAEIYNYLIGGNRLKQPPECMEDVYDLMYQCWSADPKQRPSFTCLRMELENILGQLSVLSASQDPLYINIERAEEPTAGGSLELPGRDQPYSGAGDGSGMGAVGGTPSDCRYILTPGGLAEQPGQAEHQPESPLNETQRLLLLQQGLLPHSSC
Experimental: (§1) Activities of compounds against each of TYRO3, AXL, and MERTK as well as against FLT3, were determined using an immobilized metal ion affinity-based fluorescence polarization (“IMAP”) assay. A fluorescently-labeled substrate peptide was phosphorylated in the kinase reaction, after which a binding solution containing large trivalent metal-based nanoparticles was added and the phosphorylated substrate binds to these beads. This reduces the rotational speed of the substrate which is then detected using fluorescence polarization as a read-out.
(§2) The substrates used for each enzyme are as follows: AXL: 5F1-KKKKEEIYFFFG-NH2(SEQ ID NO:1); FLT3: 5F1-KKKKEEIYFFF-NH2 (SEQ ID NO:2); MERTK: 5F1-EFPIYDFLPAKKK-NH2 (SEQ ID NO:3); and TYRO3: 5F1-EFPIYDFLPAKKK-NH2 (SEQ ID NO:4).
(§3) This assay was performed in a 384-well, polystyrene microplate in a final volume of 8 μl. Substrate (final concentration=400 nM), ATP (final concentrations=24.7μM for AXL; 2.74 μM for FLT3; 2.69 μM for MERTK; and 54.0 μM for TYRO3), compounds and enzyme (final concentrations=2.5 nM for AXL, FLT3 and TYRO3; 1.5 nM for MERTK) were pipetted in this order into the appropriate reaction buffer (AXL: 50 mM HEPES, pH 8.0, 1 mM DTT, 10 mM MgCl2, 0.01% BRU35, 0.01% Triton X-100; FLT3: 50 mM HEPES, pH 8.0, 1 mM DTT, 10 mM MgCl2, 0.01% Triton X-100, 0.01% NP40; MERTK/TYRO3: 50 mM HEPES, pH 8.0, 1 mM DTT, 10 mM MgCl2, 0.01% Triton X-100) and incubated at room temperature for varying times (AXL, FLT3 and MERTK: 240 minutes; TYRO3: 60 minutes). IMAP binding solution was then dispensed, the plate incubated for 60 minutes at room temperature and the fluorescence polarization measured. Data were analyzed using XLfit.

MERTK = biological target: T2, MERTK (Homo sapiens, UniProt Q12866); assay: IMAP fluorescence polarization kinase assay, MERTK; format: biochemical; conditions: ATP 2.69 μM, enzyme 1.5 nM, 240 minutes, read-out: MERTK inhibitory constant (Ki)
T2 sequence (Q12866 21-999): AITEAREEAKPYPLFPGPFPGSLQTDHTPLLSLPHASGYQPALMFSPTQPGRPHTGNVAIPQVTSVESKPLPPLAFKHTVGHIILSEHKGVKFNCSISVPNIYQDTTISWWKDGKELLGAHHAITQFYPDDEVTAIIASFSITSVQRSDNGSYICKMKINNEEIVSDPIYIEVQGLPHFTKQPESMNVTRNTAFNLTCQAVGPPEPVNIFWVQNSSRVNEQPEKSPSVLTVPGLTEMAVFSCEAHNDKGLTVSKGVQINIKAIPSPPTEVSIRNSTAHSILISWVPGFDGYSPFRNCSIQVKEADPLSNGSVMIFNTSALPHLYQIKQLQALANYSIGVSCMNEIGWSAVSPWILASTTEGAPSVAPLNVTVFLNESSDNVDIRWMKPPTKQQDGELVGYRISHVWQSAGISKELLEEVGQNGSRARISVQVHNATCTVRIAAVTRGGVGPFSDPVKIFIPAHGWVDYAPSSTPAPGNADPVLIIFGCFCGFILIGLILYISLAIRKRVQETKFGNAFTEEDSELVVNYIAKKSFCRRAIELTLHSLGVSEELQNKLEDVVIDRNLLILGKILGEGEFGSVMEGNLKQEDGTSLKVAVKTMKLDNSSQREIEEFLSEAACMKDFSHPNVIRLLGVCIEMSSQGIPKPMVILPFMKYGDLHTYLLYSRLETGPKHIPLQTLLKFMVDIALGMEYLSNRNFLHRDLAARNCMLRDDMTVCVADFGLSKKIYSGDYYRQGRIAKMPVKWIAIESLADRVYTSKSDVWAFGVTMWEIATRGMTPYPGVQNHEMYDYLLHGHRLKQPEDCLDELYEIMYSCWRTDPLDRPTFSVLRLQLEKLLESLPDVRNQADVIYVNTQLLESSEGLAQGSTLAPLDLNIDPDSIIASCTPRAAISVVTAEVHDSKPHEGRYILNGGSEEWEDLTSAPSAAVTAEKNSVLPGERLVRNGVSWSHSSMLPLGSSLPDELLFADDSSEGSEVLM
Experimental: as §1, §2, §3

Compound | Ki (TYRO3) [nM] | Ki (MERTK) [nM]
CCCc1cc2c(N[C@H]3CC[C@H](N)CC3)c(C(=O)Nc3ccc(F)cc3)cnc2[nH]1 [Compound 100, 4-(((1r,4r)-4-aminocyclohexyl)amino)-N-(4-fluorophenyl)-2-propyl-1H-pyrrolo [2,3-b]pyridine-5-carboxamide hydrochloride] | < 100 | < 100
CCCc1cc2c(N[C@H]3CC[C@H](O)CC3)c(C(=O)Nc3ccc(F)cc3)cnc2[nH]1 [Compound 101] | 100 to 1000 | 100 to 1000
CCCc1cc2c(N[C@H]3CC[C@H](O)CC3)c(C(=O)NCc3ccc(-n4ccnc4)cc3)cnc2[nH]1 [Compound 102] | < 100 | < 100
Cc1cc2c(N[C@H]3CC[C@H](N)CC3)c(C(=O)Nc3ccc(F)cc3)cnc2[nH]1 [Compound 103] | 1000 to 10000 | < 100
CCCc1cc2c(N[C@H]3CC[C@H](O)CC3)c(C(=O)NC3CCN(c4ncccn4)CC3)cnc2[nH]1 [Compound 104] | < 100 | < 100
CCCc1cc2c(N[C@H]3CC[C@H](O)CC3)c(-c3ccc(CN4CCOCC4)cn3)cnc2[nH]1 [Compound 105] | < 100 | < 100
CCCc1cc2c(N[C@H]3CC[C@H](O)CC3)c(-c3ccc(CN4CCOCC4)cc3)cnc2[nH]1 [Compound 106, (1r,4r)-4-((5-(4-(morpholinomethyl)phenyl)-2-propyl-1H-pyrrolo[2,3-b]pyridin-4-yl)amino)cyclohexanol hydrochloride] | 100 to 1000 | 100 to 1000
CCCc1cc2c(N[C@H]3CC[C@H](O)CC3)c(-c3cnn(CCN(C)C)c3)cnc2[nH]1 [Compound 107] | 100 to 1000 | 100 to 1000
CCCc1cc2c(N[C@H]3CC[C@H](N)CC3)c(-c3cnn(C)c3)cnc2[nH]1 [Compound 108, (1r,4r)-N1-(5-(1-methyl-1H-pyrazol-4-yl)-2-propyl-1H-pyrrolo[2,3-b]pyridine-4-yl)cyclohexane-1,4-diamine hydrochloride] | < 100 | < 100
CCCc1cc2c(N[C@H]3CC[C@H](O)CC3)c(-c3ccc(CNCC45C[C@H]6C[C@@H](C4)C[C@@H](C5)C6)cn3)cnc2[nH]1 [Compound 109] | < 100 | < 100
N[C@H]1CC[C@H](Nc2c(C(=O)NCc3ccc(-n4ccnc4)cc3)cnc3[nH]c(-c4ccccc4)cc23)CC1 [Compound 110] | < 100 | < 100
CCCc1cc2c(N[C@H]3CC[C@H](N)CC3)c(-c3cc(NC)ncn3)cnc2[nH]1 [Compound 111, (1r,4r)-N^1-(5-(6-(methylamino)pyrimidin-4-yl)-2-propyl-1H-pyrrolo[2,3-b]pyridine-4-yl)cyclohexane-1,4-diamine hydrochloride] | < 100 | < 100
CCCc1cc2c(N[C@H]3CC[C@H](N)CC3)c(-c3cc(NC(C)C)ncn3)cnc2[nH]1 [Compound 112] | < 100 | < 100
CCCc1cc2c(N[C@H]3CC[C@H](N)CC3)c(-c3ccccn3)cnc2[nH]1 [Compound 113] | < 100 | < 100
CCCc1cc2c(N[C@H]3CC[C@H](N)CC3)c(-c3ccc(F)cn3)cnc2[nH]1 [Compound 114] | < 100 | < 100
CCCc1cc2c(N[C@H]3CC[C@H](N)CC3)c(-c3ccc(S(=O)(=O)N4CCOCC4)cn3)cnc2[nH]1 [Compound 115] | < 100 | < 100
CCCc1cc2c(N[C@H]3CC[C@H](N)CC3)c(-c3cc(N)ncn3)cnc2[nH]1 [Compound 116] | < 100 | < 100
CCCc1cc2c(N[C@H]3CC[C@H](N)CC3)c(-c3nccs3)cnc2[nH]1 [Compound 117] | < 100 | < 100
CCCc1cc2c(N[C@H]3CC[C@H](N)CC3)c(-c3ccnc(N4CCCC4)n3)cnc2[nH]1 [Compound 118, (1r,4r)-N1-(2-propyl-5-(2-(pyrrolidin-1-yl)pyrimidin-4-yl)-1H-pyrrolo[2,3-b]pyridine-4-yl)cyclohexane-1,4-diamine hydrochloride] | < 100 | < 100
CCc1cc2c(N[C@H]3CC[C@H](N)CC3)c(C(=O)NCc3ccc(-n4ccnc4)cc3)cnc2[nH]1 [Compound 119, N-(4-(1H-imidazol-1-yl)benzyl)-4-(((1r,4r)-4-aminocyclohexyl)amino)-2-ethyl-1H-pyrrolo[2,3-b]pyridine-5-carboxamide] | < 100 | < 100
CCCc1cc2c(N[C@H]3CC[C@H](N)CC3)c(-c3ccc(N)cn3)cnc2[nH]1 [Compound 120] | < 100 | < 100
CCCc1cc2c(N[C@H]3CC[C@H](N)CC3)c(C(=O)NCc3ccc(-n4ccnc4)cc3)cnc2[nH]1 [Compound 121] | < 100 | < 100
CCCc1cc2c(N[C@H]3CC[C@H](N)CC3)c(-c3cc(OC)ncn3)cnc2[nH]1 [Compound 122] | < 100 | < 100
CCCc1cc2c(N[C@H]3CC[C@H](N)CC3)c(-c3ccnc(N)n3)cnc2[nH]1 [Compound 123] | < 100 | < 100
CCCc1cc2c(N[C@H]3CC[C@H](N)CC3)c(C(=O)NC3CCOCC3)cnc2[nH]1 [Compound 124] | < 100 | < 100
CCCc1cc2c(N[C@H]3CC[C@H](O)CC3)c(-c3ccc(CN4CCCC4)cn3)cnc2[nH]1 [Compound 125] | < 100 | < 100
N[C@H]1CC[C@H](Nc2c(C(=O)NCc3ccc(-n4ccnc4)cc3)cnc3[nH]c(C4CCCC4)cc23)CC1 [Compound 126] | < 100 | < 100
CCCc1cc2c(N[C@H]3CC[C@H](N)CC3)c(-c3ccc(C)nn3)cnc2[nH]1 [Compound 127] | < 100 | < 100
